Assay results published in patent US6342503B1, “1N-alkyl-n-arylpyrimidinamines and derivatives thereof” (DuPont Pharmaceuticals Company, priority 1993, dated 2002).
Counter-ions that a name gives are not always drawn.

target: T1, CRF receptor (Rattus norvegicus, UniProt P35353); assay: In vitro CRF receptor binding assay (competition with [125I] ovine CRF, rat cortex membranes); conditions: competition with [125I] ovine CRF, 2 h at 22° C.; Ki classes; read-out: Inhibition Ki
T1 construct: 100 μl of membrane suspension as prepared above to give a total reaction volume of 300 μl; from tissue; host or cells: rat cerebral cortex membrane homogenate
T1 sequence (P35353 24-415): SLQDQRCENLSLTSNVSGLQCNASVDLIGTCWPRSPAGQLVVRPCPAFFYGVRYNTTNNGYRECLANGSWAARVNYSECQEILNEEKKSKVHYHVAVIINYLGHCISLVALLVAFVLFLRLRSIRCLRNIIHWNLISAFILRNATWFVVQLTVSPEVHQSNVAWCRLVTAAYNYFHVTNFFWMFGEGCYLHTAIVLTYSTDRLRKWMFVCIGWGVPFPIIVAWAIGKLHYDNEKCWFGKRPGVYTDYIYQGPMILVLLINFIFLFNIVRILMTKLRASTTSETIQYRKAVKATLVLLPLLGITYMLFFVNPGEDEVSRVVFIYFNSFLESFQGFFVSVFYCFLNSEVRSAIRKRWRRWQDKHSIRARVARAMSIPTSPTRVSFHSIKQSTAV
Description: In vitro Receptor Binding Assay
Tissue Preparation: Male Sprague Dawley rats (180-200 g) were sacrificed by decapitation and the cortex was dissected on ice, frozen whole in liquid nitrogen and stored at −70° C. until use. On the day of assay, frozen tissue was weighed and homogenized in 20 volumes of ice cold buffer containing 50 mM Tris, 10 mM MgCl2, 2 mM EGTA, pH 7.0 at 22° C. using a Polytron (Brinkmann Instruments, Westbury, N.Y.; setting 6) for 20 s. The homogenate was centrifuged at 48,000× g for 10 min at 4° C. The supernatant was discarded, and the pellet was re-homogenized in the same volume of buffer and centrifuged at 48,000× g for 10 min at 4° C. The resulting pellet was resuspended in the above buffer to a final concentration of 20-40 mg original wet weight/mL and used in the assays described below.
CRF Receptor Binding: Receptor binding assays were carried out essentially as described by E. B. De Souza, J. Neurosci. […]
All assays were carried out at equilibrium for 2 h at 22° C. as described by E. B. De Souza, J. Neurosci. […] The reaction was terminated by centrifugation of the tubes in a Beckman microfuge for 5 min at 12,000× g. Aliquots of the supernatant were collected to determine the “free” radioligand concentration. The remaining supernatant was aspirated and the pellets washed gently with ice-cold PBS plus 0.01% Triton X-100; centrifuged again and monitored for bound radioactivity as described above. […] This program has the distinct advantage of fitting the raw experimental data on an untransformed coordinate system where errors are most likely to be normally distributed and uncorrelated with the independent variable. […] The parameters for the affinity constants (KD) and receptor densities (Bmax) are also provided along with statistics on the general “fit” of the estimated parameters to the raw data.
Competition Curve Analysis
The resulting pellets were surface washed twice by centrifugation with 1 mL of ice-cold phosphate buffered saline and 0.01% Triton X-100; the supernatants discarded and the pellets monitored for radioactivity at approximately 80% efficiency. The level of non-specific binding was defined in the presence of […] unlabeled rat/humanCRF (r/hCRF). Data from competition curves were analyzed by the program LIGAND. […] Routinely, the data were analyzed using a one- and two-site model comparing the “goodness of fit” between the models in order to accurately determine the Ki. Statistical analyses provided by LIGAND allowed the determination of whether a single-site or multiple-site model should be used.
In Table 17; the Ki values were determined using the assay conditions described above.

Compound | Ki [nM]
N-ethyl-N-(2-bromo-4-(2-methoxyethyl)phenyl)4-morpholino-6-methyl-2-pyrimidinamine [compound 29] | < 500

tested on: not given; assay: not given; conditions: not given

Compound | melting point [°C]
Cc1ccc(N(C)c2nc(C)cc(C)n2)c(Br)c1 (as salt: hydrochloride) [compound 1, N-(2-bromo-4-methylphenyl)-N-methyl-4,6-dimethyl-2-pymidinamine] | 120 to 121
COc1ccc(N(C)c2nc(C)cc(C)n2)c(OC)c1 (as salt: hydrochloride) [compound 2] | 112 to 113
C=CCN(c1nc(C)cc(C)n1)c1ccccc1Br (as salt: hydrochloride) [compound 3] | 127 to 129
Cc1cc(C)nc(N(C)c2ccc(C(C)C)cc2Br)n1 (as salt: hydrochloride) [compound 4, N-(2-bromo-4-(1-methylethyl)phenyl)-N-methyl-4,6-dimethyl-2-pymidinamine] | 163 to 164
CCc1ccc(N(C)c2nc(C)cc(C)n2)c(Br)c1 (as salt: hydrochloride) [compound 9, N-(2-bromo-4-ethylphenyl)-N-methyl-4,6-dimethyl-2-pypimidinamine] | 126 to 127
Cc1cc(C)nc(N(C)c2ccc(C(C)(C)C)cc2Br)n1 (as salt: hydrochloride) [compound 11] | 193 to 195
C=CCN(c1nc(C)cc(N2CCOCC2)n1)c1ccc(C(C)C)cc1Br (as salt: hydrochloride) [compound 17] | 208 to 211
CCCCc1ccc(N(CC)c2nc(C)cc(C)n2)c(Br)c1 (as salt: hydrochloride) [compound 19] | 124 to 126
CCN(c1nc(C)cc(C)n1)c1ccc(C(C)C)cc1Br (as salt: hydrochloride) [compound 21, N-(2-bromo-4-(1-methylethyl)phenyl)-N-ethyl-4,6dimethyl-2-pyrimidinamine] | 151 to 153
CCCCc1ccc(N(CC)c2nc(CC)cc(CC)n2)c(Br)c1 (as salt: hydrochloride) [compound 24] | 116 to 118
Cc1cc(C)nc(N(CC2CC2)c2ccc(C(C)C)cc2Br)n1 (as salt: hydrochloride) [compound 33] | 146 to 148
CCN(c1nccc(C)n1)c1ccc(C(C)C)cc1Br (as salt: hydrochloride) [compound 49, N-(2-Bromo-4-(1-methylethyl)phenyl)-N-ethyl-4-methyl-2-pymidinamine] | 145 to 147
Cc1cc(C)nc(N(C)c2ccc(I)cc2)n1 (as salt: hydrochloride) [compound 52] | 175 to 177
Cc1cc(C)nc(N(C)c2ccccc2I)n1 (as salt: hydrochloride) [compound 53] | 164 to 166

The next lines start with the values.

melting point [°C] | Compound
102 to 104 | CCN(c1nc(C)cc(CN2CCN(c3ccccc3OC)CC2)n1)c1ccc(C(C)C)cc1Br (as salt: HCl) [compound 275]
117 to 119 | CCN(c1nc(C)cc(CN2CCN(c3ccccn3)CC2)n1)c1ccc(C(C)C)cc1Br (as salt: HCl) [compound 280]
125 to 127 | CCN(c1nc(C)cc(CN2CCN(c3ncccn3)CC2)n1)c1ccc(C(C)C)cc1Br (as salt: HCl) [compound 281]
105 to 107 | CCN(c1nc(C)cc(C(=O)c2c[nH]c3ccccc23)n1)c1ccc(C(C)C)cc1Br (as salt: HCl) [compound 283]
104 to 106 | CCN(c1cc(OC)nc(OC)n1)c1ccc(C(C)C)cc1Br (as salt: hydrochloride) [compound 130]
59 to 63 | CCN(c1nc(C)nc(N2CCOCC2)n1)c1ccc(C(C)C)cc1Br (as salt: hydrochloride) [compound 134, N-[2-bromo-4-(1-methylethyl)phenyl]-N-ethyl-4-methyl-6-(4-morpholinyl)-1,3,5-triazin-2-amine]
117 to 121 | CCN(c1nc(C)cc(NN)n1)c1ccc(C(C)C)cc1Br (as salt: hydrochloride) [compound 146]
